In BigSolDB 2.1:

Cc1cnc(C(=O)O)cn1
solubility (mole fraction)
Settings	273.15 K	278.15 K	283.15 K	288.15 K	293.15 K	298.15 K	303.15 K	308.15 K	313.15 K
in 1,4-dioxane	–	–	–	1.88e-05	2.16e-05	2.48e-05	2.84e-05	3.29e-05	3.84e-05
in 2-butanone	5.8e-06	6.8e-06	8e-06	9.3e-06	1.06e-05	1.21e-05	1.39e-05	1.58e-05	1.79e-05
in acetone	6.7e-06	8e-06	9.3e-06	1.07e-05	1.21e-05	1.39e-05	1.56e-05	1.78e-05	2e-05
in acetonitrile	2.48e-06	2.92e-06	3.44e-06	4.01e-06	4.6e-06	5.34e-06	6.05e-06	6.88e-06	7.79e-06
in ethanol	1.09e-05	1.27e-05	1.49e-05	1.71e-05	1.97e-05	2.25e-05	2.57e-05	2.93e-05	3.33e-05
in ethyl acetate	4.31e-06	5.04e-06	5.82e-06	6.63e-06	7.5e-06	8.4e-06	9.45e-06	1.07e-05	1.2e-05
in isopropanol	7.8e-06	9.1e-06	1.04e-05	1.19e-05	1.36e-05	1.56e-05	1.78e-05	2.03e-05	2.28e-05
in methanol	8.5e-06	1e-05	1.16e-05	1.36e-05	1.56e-05	1.77e-05	2.01e-05	2.29e-05	2.57e-05
in n-butanol	9.4e-06	1.08e-05	1.25e-05	1.43e-05	1.65e-05	1.9e-05	2.19e-05	2.51e-05	2.87e-05
in n-propanol	1e-05	1.17e-05	1.36e-05	1.58e-05	1.82e-05	2.07e-05	2.34e-05	2.68e-05	3.06e-05
in toluene	9.7e-07	1.1e-06	1.25e-06	1.42e-06	1.65e-06	1.89e-06	2.18e-06	2.5e-06	2.89e-06
in water	3.32e-06	3.83e-06	4.46e-06	5.16e-06	5.86e-06	6.74e-06	7.7e-06	8.83e-06	1.01e-05
